Data published in ChEMBL document CHEMBL5260828, “Amphiphilic glycoconjugates as potential anti-cancer chemotherapeutics” (Eur J Med Chem, 2018).
In brackets after ≈: the same amount, converted by molar mass.

Key:
NCI-H292 [1] = experiment: Cytotoxicity against human NCI-H292 cells assessed as reduction in cell viability incubated for 4 days by WST-1 assay; format: functional, cell-based; conditions: NCI-H292, 96 h
[2] = Induction of apoptosis in rat Glial cell transformed with adenovirus 12 E1A incubated for 24 hrs by /Hoechst […] staining based flourescence microscopy; format: functional
MKN-7 = experiment: Growth inhibition of human MKN-7 cells by sulforhodamine B assay; format: functional
NCI-H226 = experiment: Growth inhibition of human NCI-H226 cells by sulforhodamine B assay; format: functional
DMS-273 = experiment: Growth inhibition of human DMS-273 cells by sulforhodamine B assay; format: functional
OVCAR-3 = experiment: Growth inhibition of human OVCAR-3 cells by sulforhodamine B assay; format: functional
MCF7 [3] = experiment: Growth inhibition of human MCF7 cells by sulforhodamine B assay; format: functional
ACHN = experiment: Growth inhibition of human ACHN cells by sulforhodamine B assay; format: functional
HCC 2998 = experiment: Growth inhibition of human HCC 2998 cells by sulforhodamine B assay; format: functional
HCT-116 = experiment: Growth inhibition of human HCT-116 cells by sulforhodamine B assay; format: functional
HeLa S3 = experiment: Cytotoxicity against human HeLa S3 cells assessed as cell growth inhibition; format: functional, cell-based
NCI-H522 = experiment: Growth inhibition of human NCI-H522 cells by sulforhodamine B assay; format: functional
[4] = target: Sarcoplasmic/endoplasmic reticulum calcium ATPase 1 (Oryctolagus cuniculus, UniProt P04191); experiment: Inhibition of SERCA1a in rabbit Sarcoplasmic reticulum assessed as inhibition constant in presence of [gamma-32P]ATP and calcium ionophore A23187 by coupled enzyme assay; format: subcellular
SF-539 = experiment: Growth inhibition of human SF-539 cells by sulforhodamine B assay; format: functional
OVCAR-8 = experiment: Growth inhibition of human OVCAR-8 cells by sulforhodamine B assay; format: functional
[5] = Growth inhibition of human BSY1 cells by sulforhodamine B assay; format: functional; conditions: BSY-1
MKN-45 = experiment: Growth inhibition of human MKN-45 cells by sulforhodamine B assay; format: functional
MKN-1 = experiment: Growth inhibition of human MKN-1 cells by sulforhodamine B assay; format: functional
SF-295 = experiment: Growth inhibition of human SF-295 cells by sulforhodamine B assay; format: functional
SNB-75 = experiment: Growth inhibition of human SNB-75 cells by sulforhodamine B assay; format: functional
SF-268 = experiment: Growth inhibition of human SF-268 cells by sulforhodamine B assay; format: functional
SNB-78 = experiment: Growth inhibition of human SNB-78 cells by sulforhodamine B assay; format: functional
NCI-H23 = experiment: Growth inhibition of human NCI-H23 cells by sulforhodamine B assay; format: functional
U-251 = experiment: Growth inhibition of human U-251 cells by sulforhodamine B assay; format: functional
NCI-H460 = experiment: Growth inhibition of human NCI-H460 cells by sulforhodamine B assay; format: functional
A549 = experiment: Growth inhibition of human A549 cells by sulforhodamine B assay; format: functional
LOX IMVI = experiment: Growth inhibition of human LOX IMVI cells by sulforhodamine B assay; format: functional
SK-OV-3 = experiment: Growth inhibition of human SK-OV-3 cells by sulforhodamine B assay; format: functional
[6] = Growth inhibition of human […] cells by sulforhodamine B assay; format: functional
HCT-15 = experiment: Growth inhibition of human HCT-15 cells by sulforhodamine B assay; format: functional
[7] = Growth inhibition of human HBC4 cells by sulforhodamine B assay; format: functional
St-4 = experiment: Growth inhibition of human St-4 cells by sulforhodamine B assay; format: functional
KM12 = experiment: Growth inhibition of human KM12 cells by sulforhodamine B assay; format: functional
RXF 631 = experiment: Growth inhibition of human RXF 631 cells by sulforhodamine B assay; format: functional
MKN-74 = experiment: Growth inhibition of human MKN-74 cells by sulforhodamine B assay; format: functional
MKN-28 = experiment: Growth inhibition of human MKN-28 cells by sulforhodamine B assay; format: functional
OVCAR-5 = experiment: Growth inhibition of human OVCAR-5 cells by sulforhodamine B assay; format: functional
DU-145 = experiment: Growth inhibition of human DU-145 cells by sulforhodamine B assay; format: functional
PC-3 = experiment: Growth inhibition of human PC-3 cells by sulforhodamine B assay; format: functional
HT-29 = experiment: Growth inhibition of human HT-29 cells by sulforhodamine B assay; format: functional
OVCAR-4 = experiment: Growth inhibition of human OVCAR-4 cells by sulforhodamine B assay; format: functional
[8] = Growth inhibition of human HBC5 cells by sulforhodamine B assay; format: functional
[9] = Cytotoxicity against mouse WEHI-231 cells assessed as cell growth inhibition incubated for 144 hrs by MTT assay; format: functional, cell-based; conditions: WEHI231, 144 h
MCF7 [10] = experiment: Cytotoxicity against human MCF7 cells assessed as cell growth inhibition incubated for 144 hrs by MTT assay; format: functional, cell-based; conditions: MCF7, 144 h
Colon 26 = experiment: Cytotoxicity against mouse Colon 26 cells incubated for 3 days by MTT assay; format: functional, cell-based; conditions: Colon 26, 72 h
L1210 = experiment: Cytotoxicity against mouse L1210 cells incubated for 3 days by MTT assay; format: functional, cell-based; conditions: L1210, 72 h
NCI-H292 [11] = experiment: Growth inhibition in human NCI-H292 cells incubated for 2 days by calcein-AM/pluronic F127 based fluorescence plate reader; format: functional; conditions: NCI-H292, 48 h, time 2 day
HeLa = experiment: Cytotoxicity against human HeLa cells by MTT assay; format: functional, cell-based
K562 = experiment: Cytotoxicity against human K562 cells by MTT assay; format: functional, cell-based
KB = experiment: Cytotoxicity against human KB cells by MTT assay; format: functional, cell-based
Jurkat = experiment: Cytotoxicity against human Jurkat cells incubated for 18 hrs by MTS assay; format: functional

Sarcoplasmic/endoplasmic reticulum calcium ATPase 1, sequence (P04191 whole entry): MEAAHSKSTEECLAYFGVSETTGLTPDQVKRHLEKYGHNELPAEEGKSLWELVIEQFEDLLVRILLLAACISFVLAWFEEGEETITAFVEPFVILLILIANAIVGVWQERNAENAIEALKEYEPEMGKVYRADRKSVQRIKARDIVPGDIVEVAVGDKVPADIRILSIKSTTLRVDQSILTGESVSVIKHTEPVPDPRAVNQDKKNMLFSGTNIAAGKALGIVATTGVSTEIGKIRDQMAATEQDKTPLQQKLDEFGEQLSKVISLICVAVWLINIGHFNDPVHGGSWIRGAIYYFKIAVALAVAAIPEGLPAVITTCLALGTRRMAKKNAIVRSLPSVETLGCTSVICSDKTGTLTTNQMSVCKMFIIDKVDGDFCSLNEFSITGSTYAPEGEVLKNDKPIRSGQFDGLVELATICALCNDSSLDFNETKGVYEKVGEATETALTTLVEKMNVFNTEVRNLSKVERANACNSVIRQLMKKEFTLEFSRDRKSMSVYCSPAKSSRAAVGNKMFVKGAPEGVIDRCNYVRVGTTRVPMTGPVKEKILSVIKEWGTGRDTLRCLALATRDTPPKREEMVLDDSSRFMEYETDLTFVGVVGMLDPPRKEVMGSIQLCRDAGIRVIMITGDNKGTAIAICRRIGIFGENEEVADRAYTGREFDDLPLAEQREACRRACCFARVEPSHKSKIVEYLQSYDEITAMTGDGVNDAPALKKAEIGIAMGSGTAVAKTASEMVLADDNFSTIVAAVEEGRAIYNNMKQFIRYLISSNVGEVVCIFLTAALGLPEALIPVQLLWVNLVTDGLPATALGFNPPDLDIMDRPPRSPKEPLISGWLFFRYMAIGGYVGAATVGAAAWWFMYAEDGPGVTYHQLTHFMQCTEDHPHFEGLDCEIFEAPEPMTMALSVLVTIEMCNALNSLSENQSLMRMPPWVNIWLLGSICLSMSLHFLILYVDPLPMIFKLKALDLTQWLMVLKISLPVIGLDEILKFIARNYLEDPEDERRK

## COC[C@@H](C[C@H]1O[C@@](O)([C@H](O)[C@@H]2C[C@H](OC)[C@@H](O)CC/C=C(C)/C=C/[C@@H](O[C@@H]3O[C@@H](C)[C@H](OC)[C@@H](O)[C@@H]3O)[C@H](C)/C=C(C)/C=C(C)/C=C(\C)C(=O)O2)[C@H](C)[C@@H](O)[C@H]1C)O[C@H]1C[C@](C)(O)[C@@H](O[C@H]2C[C@@H](OC)[C@H](O)[C@@H](C)O2)[C@H](C)O1
NCI-H292 [1]
  EC50: < 50 nM
[2]
  IC50: 0.011 µg/mL (≈ 0.00974 µM)

## C/C=C/C/C(C)=C\[C@H]1C/C=C/C=C/C[C@H](C)/C=C(\C)[C@@H](OC)C/C=C/[C@@H](O[C@@H]2O[C@H](CO)[C@@H](O)[C@H](OC)[C@H]2O)CC(=O)O1
MKN-7
  GI50: 600 nM
NCI-H226
  GI50: 600 nM
DMS-273
  GI50: 600 nM
OVCAR-3
  GI50: 600 nM
MCF7 [3]
  GI50: 600 nM
ACHN
  GI50: 600 nM
HCC 2998
  GI50: 600 nM
HCT-116
  GI50: 600 nM
HeLa S3
  IC50: 0.1 µg/mL (≈ 0.165 µM)
NCI-H522
  GI50: 600 nM
[4]
  Ki: 19 nM
SF-539
  GI50: 600 nM
OVCAR-8
  GI50: 600 nM
[5]
  GI50: 600 nM
MKN-45
  GI50: 600 nM
MKN-1
  GI50: 600 nM
SF-295
  GI50: 600 nM
SNB-75
  GI50: 600 nM
SF-268
  GI50: 600 nM
SNB-78
  GI50: 600 nM
NCI-H23
  GI50: 600 nM
U-251
  GI50: 600 nM
NCI-H460
  GI50: 600 nM
A549
  GI50: 600 nM
LOX IMVI
  GI50: 600 nM
SK-OV-3
  GI50: 600 nM
[6]
  GI50: 600 nM
HCT-15
  GI50: 600 nM
[7]
  GI50: 600 nM
St-4
  GI50: 600 nM
KM12
  GI50: 600 nM
RXF 631
  GI50: 600 nM
MKN-74
  GI50: 600 nM
MKN-28
  GI50: 600 nM
OVCAR-5
  GI50: 600 nM
DU-145
  GI50: 600 nM
PC-3
  GI50: 600 nM
HT-29
  GI50: 600 nM
OVCAR-4
  GI50: 600 nM
[8]
  GI50: 600 nM

## COC[C@@H](C[C@H]1O[C@@](O)([C@H](O)[C@@H]2C[C@H](OC)[C@@H](O)CCC/C=C(C)\C=C\C[C@@H](O[C@H]3O[C@@H](C)[C@H](OC)[C@@H](O)[C@@H]3O)[C@H](C)/C=C(C)/C=C(C)/C=C(\C)C(=O)O2)[C@H](C)[C@@H](O)[C@H]1C)O[C@H]1C[C@](C)(O)[C@@H](O[C@H]2C[C@@H](OC)[C@H](O)[C@@H](C)O2)[C@H](C)O1
[9]
  IC50: 20 nM
MCF7 [10]
  IC50: 30 nM

## C/C=C(\C)[C@H](O)[C@H](C)/C=C(C)/C=C/C/C(C)=C/Cc1nc(OC)c(OC)c(OC2O[C@H](C)[C@H](O)[C@H](O)[C@@H]2O)c1C (stereo partly specified)
Colon 26
  IC50: 0.81 µg/mL (≈ 1.44 µM)
L1210
  IC50: 7.91 µg/mL (≈ 14.1 µM)

## COC[C@@H](C[C@H]1O[C@@](O)([C@H](O)[C@@H]2C[C@H](OC)CCC/C=C(C)/C=C/[C@@H](O[C@@H]3O[C@@H](C)[C@H](OC)[C@@H](O)[C@@H]3O)[C@H](C)/C=C(C)/C=C(C)/C=C(\C)C(=O)O2)[C@H](C)[C@@H](O)[C@H]1C)O[C@H]1C[C@](C)(O)[C@@H](O[C@H]2C[C@@H](OC)[C@H](O)[C@@H](C)O2)[C@H](C)O1
NCI-H292 [11]
  GI50: 7 nM

## C/C=C(\C)[C@H](O)[C@H](C)/C=C(C)/C=C/C/C(C)=C/Cc1nc(OC)c(OC)c(OC2O[C@@H](C)[C@H](O)[C@@H](O)[C@H]2O)c1C (stereo partly specified)
HeLa
  IC50: 2.8 µg/mL (≈ 4.98 µM)
K562
  IC50: 4.6 µg/mL (≈ 8.19 µM)
KB
  IC50: 3.8 µg/mL (≈ 6.76 µM)

## CCCCCCCCCCCCn1cc(CO[C@@H]2OC[C@@H](O)[C@H](O)[C@H]2O)nn1
Jurkat
  CC50: 26000 nM
